Where a SMILES comes first, the peptide text is derived from it. The star is where a group is joined. 5FAM = O=C1OC2(c3ccc(O)cc3Oc3cc(O)ccc32)c2ccc(C(=O)*)cc21
Test: In vitro metabolism test of fluorescein-labeled peptides in liver extract solution (HPLC)
Type: in vitro ADME
Settings: liver extract solution (supernatant of liver homogenate), mouse liver extract solution, 37° C., read-out: residual ratio of unchanged peptide in liver extract solution
Experimental: To compare the degree of improved stability observed in [C]K004K, an experiment system that uses a fluorescent pigment as a tracer instead of an isotope labeling for in vitro evaluation using a mouse liver homogenate was produced.
Add two parts of Hanks' solution to one part of mouse liver, and homogenize ↓ Centrifuge and collect supernatant ↓ Add five parts of Hanks' solution (liver extract solution) ↓ Add 5 μL of peptide to 245 μL of liver extract solution ↓
↓ Take 50 μL of sample 0, 5, 30, 60, and 120 minutes after incubation ↓ Add 200 μL, of 70% ethanol (pre-cooled at −30° C.) and then vortex ↓ Add 500 μL of chloroform (pre-cooled at −30° C.) and then vigorously vortex ↓ Centrifuge and collect supernatant ↓ Add an equivalent amount of DMF and then vortex ↓ Centrifuge and collect supernatant ↓ HPLC analysis using Co-sense
[C](Flu)-C004C: A peptide cyclized by adding C to both ends of the 004 sequence and forming a disulfide bond between them was labeled with fluorescein at its N-terminus. [C](Flu)-K004C: A peptide cyclized by adding K to the N terminus and C to the C terminus of the 004 sequence and forming a peptide bond between the N- and C-termini was labeled with fluorescein at its N terminus. [C](Flu)-K004K: A peptide cyclized by adding K to both ends of the 004 sequence and forming a peptide bond between the N- and C-termini was labeled with fluorescein at its N terminus. […]

| SMILES | remaining at 1 h (60-minute incubation) [%] | remaining at 5 min (five minutes) [%] |
| --- | --- | --- |
| CC(C)C[C@@H]1NC(=O)[C@H](Cc2c[nH]cn2)NC(=O)[C@H](CCCNC(=N)N)NC(=O)[C@H](C(C)C)NC(=O)[C@H](C(C)C)NC(=O)[C@H](CCCCNC(=O)c2ccc3c(c2)C(=O)OC32c3ccc(O)cc3Oc3cc(O)ccc32)NC(=O)[C@H](CCCCN)NC(=O)[C@H](CCC(N)=O)NC(=O)[C@H](CCC(N)=O)NC1=O [[C](Flu)-K004K] (cyclo(K(5FAM)VVRHLQQK)) | ~50 |  |
| CC(C)C[C@@H]1NC(=O)[C@H](Cc2c[nH]cn2)NC(=O)[C@H](CCCNC(=N)N)NC(=O)[C@H](C(C)C)NC(=O)[C@H](C(C)C)NC(=O)[C@H](CCCCNC(=O)c2ccc3c(c2)C(=O)OC32c3ccc(O)cc3Oc3cc(O)ccc32)NC(=O)[C@H](CS)NC(=O)[C@H](CCC(N)=O)NC(=O)[C@H](CCC(N)=O)NC1=O [[C](Flu)-K004C, reference compound] (cyclo(K(5FAM)VVRHLQQC)) |  | 40 |
